Test results as given in publication PMC9177597, “Structural basis of substrate recognition and translocation by human very long-chain fatty acid transporter ABCD1” (Nature Communications, 2022).
Positions count from the first letter of the chain named.

How the values were obtained:
Assay in all cases: substrate-stimulated ATPase assay (colorimetric Pi release)
Format in all cases: biochemical
Details in all cases: 5 μM C22:0-CoA, 2 mM ATP, 2 mM MgCl2, LMNG + CHS, pH 7.5, 37 °C
chABCD1 (chimeric ABCD1) [1] = target: T1, chABCD1 (chimeric ABCD1) (Homo sapiens, UniProt P33897, R401Q)
T1 construct: single polypeptide: N-terminal FLAG tag, PMP-4 residues 1-65 replacing human ABCD1 residues 1-63, then human ABCD1 64-745; HEK293F; homodimer; LMNG/CHS for assays, digitonin for cryo-EM; with PMP-4 (peroxisomal membrane protein related, ABCD1 homolog, Caenorhabditis elegans; N-terminal segment fused to the target chain)
T1 sequence (P33897 64-745 R401Q): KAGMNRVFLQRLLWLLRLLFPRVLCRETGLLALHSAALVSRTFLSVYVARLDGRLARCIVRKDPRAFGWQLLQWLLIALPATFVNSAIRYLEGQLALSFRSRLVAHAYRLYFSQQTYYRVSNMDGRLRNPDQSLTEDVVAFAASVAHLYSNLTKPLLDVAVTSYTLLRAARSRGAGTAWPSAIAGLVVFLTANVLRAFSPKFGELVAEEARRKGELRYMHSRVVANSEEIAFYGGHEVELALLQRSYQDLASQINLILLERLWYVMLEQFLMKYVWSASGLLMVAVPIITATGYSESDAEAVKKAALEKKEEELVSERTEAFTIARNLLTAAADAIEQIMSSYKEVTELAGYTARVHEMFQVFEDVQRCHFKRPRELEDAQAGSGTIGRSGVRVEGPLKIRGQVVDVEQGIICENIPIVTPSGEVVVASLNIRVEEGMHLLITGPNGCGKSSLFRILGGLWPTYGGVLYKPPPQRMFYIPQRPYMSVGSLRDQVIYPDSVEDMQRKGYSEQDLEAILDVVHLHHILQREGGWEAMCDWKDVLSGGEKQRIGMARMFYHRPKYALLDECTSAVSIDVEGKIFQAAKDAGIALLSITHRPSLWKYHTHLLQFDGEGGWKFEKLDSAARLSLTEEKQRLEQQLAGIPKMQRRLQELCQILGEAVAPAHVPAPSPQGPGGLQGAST

chABCD1 (chimeric ABCD1) [2] = target: T2, chABCD1 (chimeric ABCD1) (Homo sapiens, UniProt P33897, K217A)
T2 construct: single polypeptide: N-terminal FLAG tag, PMP-4 residues 1-65 replacing human ABCD1 residues 1-63, then human ABCD1 64-745; HEK293F; homodimer; LMNG/CHS for assays, digitonin for cryo-EM; with PMP-4 (peroxisomal membrane protein related, ABCD1 homolog, Caenorhabditis elegans; N-terminal segment fused to the target chain)
T2 sequence (P33897 64-745 K217A): T1 sequence (P33897 64-745 R401Q) with K154A, Q338R

chABCD1 (chimeric ABCD1) [3] = target: T3, chABCD1 (chimeric ABCD1) (Homo sapiens, UniProt P33897, R104A)
T3 construct: single polypeptide: N-terminal FLAG tag, PMP-4 residues 1-65 replacing human ABCD1 residues 1-63, then human ABCD1 64-745; HEK293F; homodimer; LMNG/CHS for assays, digitonin for cryo-EM; with PMP-4 (peroxisomal membrane protein related, ABCD1 homolog, Caenorhabditis elegans; N-terminal segment fused to the target chain)
T3 sequence (P33897 64-745 R104A): T1 sequence (P33897 64-745 R401Q) with R41A, Q338R

chABCD1 (chimeric ABCD1) [4] = target: T4, chABCD1 (chimeric ABCD1) (Homo sapiens, UniProt P33897, K336A)
T4 construct: single polypeptide: N-terminal FLAG tag, PMP-4 residues 1-65 replacing human ABCD1 residues 1-63, then human ABCD1 64-745; HEK293F; homodimer; LMNG/CHS for assays, digitonin for cryo-EM; with PMP-4 (peroxisomal membrane protein related, ABCD1 homolog, Caenorhabditis elegans; N-terminal segment fused to the target chain)
T4 sequence (P33897 64-745 K336A): T1 sequence (P33897 64-745 R401Q) with K273A, Q338R

CCCCCCCCCCCCCCCCCCCCCC(=O)SCCNC(=O)CCNC(=O)[C@H](O)C(C)(C)COP(=O)(O)OP(=O)(O)OC[C@H]1O[C@@H](n2cnc3c(N)ncnc32)[C@H](O)[C@@H]1OP(=O)(O)O [C22:0-CoA]
relative ATPase activity (chABCD1 (chimeric ABCD1) [1]): displayed significantly decreased substrate-simulated ATPase activity, compared to the wild-type
relative ATPase activity (chABCD1 (chimeric ABCD1) [2]): displayed significantly decreased substrate-simulated ATPase activity, compared to the wild-type
relative ATPase activity (chABCD1 (chimeric ABCD1) [3]): displayed significantly decreased substrate-simulated ATPase activity, compared to the wild-type
relative ATPase activity (chABCD1 (chimeric ABCD1) [4]): displayed significantly decreased substrate-simulated ATPase activity, compared to the wild-type
